Converted amounts (≈) assume the structure as drawn. Read-outs that look alike come from different tables or passages of the source.
Assays:
[1] = system: murine P388 lymphocytic leukemia cells; experiment: In vitro anti-tumor activity against murine P388 lymphocytic leukemia cells (MTT, 72 h); format: cell-based; conditions: Mus musculus; murine P388 cells, 72 h, MTT; read-out: IC50 (50% proliferation inhibitory concentration)
Protocol: Test compounds were tested for anti-tumor activity according to MTT [3-(4,5-dimethylthiazol-2-yl)-2,5-diphenyltetrazolium bromide] method, using murine P388 lymphocytic leukemia cells. […] The culture medium was centrifuged (4° C., 2,000 rpm for 20 minutes), and thus, the supernatants were removed by suction. Then, 0.1 ml of dimethyl sulfoxide was put in each well to dissolve the formed formazan, and, subsequently, another 0.1 ml of dimethyl sulfoxide was added. The absorbance (OD) of each of the obtained solutions was measured by use of Multiskan Bichromatic (main wavelength 570 nm, sub-wavelength 690 nm). […] IC50 :μg/ml) were calculated by the least squares method.

[2] = system: MKN45 human stomach cancer; experiment: In vitro anti-tumor activity against MKN45 human stomach cancer (MTT); format: cell-based; conditions: MKN-45, MKN45, 72 h, MTT, read-out: IC50
Protocol: (§1) A culture medium containing 500 to 2,000 human cancer cells was put in an amount of 0.1 ml in each well of 96-well plate, and the cells were cultured for 20 hours under a condition of 37° C. and 5% carbon dioxide gas in air. After the culturing, a solution of test compounds of predetermined concentration was added, and then, the cells were cultured for further 72 hours. After the culturing, an MTT (5 mg/ml) solution was added in an amount of 0.01 ml in the respective wells, and the cells were cultured for further 4 hours. The supernatants of the culture medium were removed by suction, and then, 0.1 ml of dimethyl sulfoxide was put in respective well to dissolve the formed formazan, and, moreover, 0.1 ml of dimethyl sulfoxide was added.

HMV2 human melanoma = experiment: In vitro anti-tumor activity against HMV-2 human melanoma (MTT); format: cell-based; conditions: HMV-2, 72 h, MTT, read-out: IC50
Protocol: as §1

[3] = system: WiDr human colorectal cancer; experiment: In vitro anti-tumor activity against WiDr human colorectal cancer (MTT); format: cell-based; conditions: 72 h, MTT, read-out: IC50
Protocol: as §1

[4] = system: colon 26 murine tumor cells; experiment: Tumor growth inhibition effect on colon 26 murine tumor cells implanted mice; format: in vivo, SLC: CDF1 mice; conditions: Mus musculus, Colon 26, 504 h, ip, days 1-9, day 21 or 22, read-out: Tumor growth inhibition rate IR (%); for inhibition in vivo at 1.56 mg/kg: 1.56 mg/kg once a day; for inhibition in vivo at 3.13 mg/kg: 3.13 mg/kg once a day
Protocol: A 2% brei of colon 26 murine tumor cells was intracutaneously implanted each 0.1 ml in the abdominal part of SLC: CDF1 female mice (7 to 9 weeks old, 7 animals per one group). […] The obtained solutions were intraperitoneally (ip) administered each 0.2 ml once a day, from the day (1st day) following the implantation to the 9th day. On the 21st or 22nd day after the implantation, tumor weight was estimated from tumor diameters, and thus, the tumor growth inhibition rate (IR %) of the drug administered group in comparison with the control group was calculated according to the following equation. IR (%)=[1-{(MTW in the treated group)/(MTW in the control group)}]×10 0 MTW: mean tumor weight

[5] = system: murine P388 lymphocytic leukemia cells; experiment: Increases in life span of mice implanted with murine P388 lymphocytic leukemia cells; format: in vivo, SLC: BDF1 mice; conditions: ip; for ILS at 50 mg/kg / ILS at 1.56 mg/kg / ILS at 3.13 mg/kg / ILS at 6.25 mg/kg / ILS at 12.5 mg/kg / ILS at 25 mg/kg / ILS at 0.78 mg/kg: Mus musculus, P388, ip, 720 h
Protocol: 1×10^6 murine P388 lymphocytic leukemia cells were intraperitoneally implanted in each of SLC: BDF1 mice (8 to 10 weeks old, female, 7 animals per one group). A test compound (drug) was either dissolved in 0.1 N--NaOH or suspended in 0.4% carboxymethylcellulose solution, and the resultant solution or suspension was diluted with distilled water or 0.4% carboxymethylcellulose solution so as to give predetermined concentrations for administration. The obtained solution was intraperitoneally (ip) administered twice, namely on the day following the implantation (1st day) and the 5th day, each 0.2 ml. The life and death of the mice were observed over a period of 30 days, and the median survival time (hereinafter referred to as MST) was determined for each group, and, thus, the increase in life span (ILS; %) was calculated according to the following equation:
ILS (%)=[{(MST of the test group)/(MST of the control group)}-1]×100
Drug effect was judged in the following manner, according to the criterion of U.S. National Cancer Institute (NCI):
ILS=75% or higher: ++ (remarkably effective);
20 to 74%: + (effective);
19% or lower: - (ineffective)

[6] = system: KB human nasopharynx cancer; experiment: In vitro anti-tumor activity against KB human nasopharynx cancer (MTT); format: cell-based; conditions: KB, 72 h, MTT, read-out: IC50
Protocol: as §1

C33A human cervix cancer = experiment: In vitro anti-tumor activity against C-33A human cervix cancer (MTT); format: cell-based; conditions: C-33A, 72 h, MTT, read-out: IC50
Protocol: as §1

A427 human lung cancer = experiment: In vitro anti-tumor activity against A-427 human lung cancer (MTT); format: cell-based; conditions: A-427, 72 h, MTT, read-out: IC50
Protocol: as §1

[7] = system: AZ521 human stomach cancer; experiment: In vitro anti-tumor activity against AZ-521 human stomach cancer (MTT); format: cell-based; conditions: AZ-521, 72 h, MTT, read-out: IC50
Protocol: as §1

[8] = NCI criterion, read-out: Evaluation
[9] = days 1 and 5, in solution, read-out: ILS (%) (in solution)
[10] = days 1 and 5, in suspension, read-out: ILS (%) (in suspension)
[11] = NCI criterion, 3.13 mg/kg, read-out: Evaluation
[12] = NCI criterion, 6.25 mg/kg, read-out: Evaluation
[13] = NCI criterion, 12.5 mg/kg, read-out: Evaluation
[14] = NCI criterion, 25 mg/kg, read-out: Evaluation
[15] = 3.13 mg/kg, days 1 and 5, in solution, read-out: ILS (%) (in solution)
[16] = 3.13 mg/kg, days 1 and 5, in suspension, read-out: ILS (%) (in suspension)
[17] = 6.25 mg/kg, days 1 and 5, in solution, read-out: ILS (%) (in solution)
[18] = 12.5 mg/kg, days 1 and 5, in solution, read-out: ILS (%) (in solution)
[19] = 12.5 mg/kg, days 1 and 5, in suspension, read-out: ILS (%) (in suspension)
[20] = 25 mg/kg, days 1 and 5, in solution, read-out: ILS (%) (in solution)

Structure (SMILES) | IC50 [1] | IC50 [2] | IC50 (HMV2 human melanoma) | IC50 [3] | IC50 [6] | IC50 (C33A human cervix cancer) | IC50 (A427 human lung cancer) | IC50 [7] | inhibition in vivo at 1.56 mg/kg [4] | ILS at 50 mg/kg [5, 8] | ILS at 50 mg/kg [5, 9] | ILS at 50 mg/kg [5, 10] | ILS at 3.13 mg/kg [5, 11] | ILS at 6.25 mg/kg [5, 12] | ILS at 12.5 mg/kg [5, 13] | ILS at 25 mg/kg [5, 14] | ILS at 3.13 mg/kg [5, 15] | ILS at 3.13 mg/kg [5, 16] | ILS at 6.25 mg/kg [5, 17] | ILS at 12.5 mg/kg [5, 19] | further results
CN[C@@H]1CN(c2ccc3c(=O)c(C(=O)O)cn(-c4nccs4)c3n2)C[C@H]1OC.Cl (single isomer, unassigned) [Compound 1-3, (-)-1,4-Dihydro-7-(trans-3-methoxy-4-methylamino-1-pyrrolidinyl)-4-oxo-1-(2-thiazolyl)-1,8-naphthyridine-3-carboxylic acid hydrochloride] | 0.02 µg/mL | 0.222 µg/mL | 0.234 µg/mL | 0.503 µg/mL | 0.208 µg/mL | 0.148 µg/mL | 0.107 µg/mL | 0.11 µg/mL | 50% | > 75% | > 275% | 200% |  |  |  |  |  |  |  |  | inhibition in vivo at 2.21 mg/kg ([4]; 2.21 mg/kg once a day): 75%; Evaluation ([5]; NCI criterion, 3.13 mg/kg): + (20 to 74%: + (effective)); Evaluation ([5]; NCI criterion, 6.25 mg/kg): ++ (ILS=75% or higher: ++ (remarkably effective)); Evaluation ([5]; NCI criterion, 12.5 mg/kg): ++ (ILS=75% or higher: ++ (remarkably effective)); Evaluation ([5]; NCI criterion, 25 mg/kg): ++ (ILS=75% or higher: ++ (remarkably effective)); ILS (%) (in solution) ([5]; 3.13 mg/kg, days 1 and 5, in solution): 63%; ILS (%) (in suspension) ([5]; 3.13 mg/kg, days 1 and 5, in suspension): 63%; ILS (%) (in solution) ([5]; 6.25 mg/kg, days 1 and 5, in solution): 88%; ILS (%) (in solution) ([5]; 12.5 mg/kg, days 1 and 5, in solution): 138%; ILS (%) (in suspension) ([5]; 12.5 mg/kg, days 1 and 5, in suspension): 125%; ILS (%) (in solution) ([5]; 25 mg/kg, days 1 and 5, in solution): 200%
Cl.NC1CCN(c2ccc3c(=O)c(C(=O)O)cn(-c4nc(F)cs4)c3n2)C1 (stereo not drawn) [Compound 8, 7-(3-Amino-1-pyrrolidinyl)-1-(4-fluoro-2-thiazolyl)-1,4-dihydro-4-oxo-1,8-naphthyridine-3-carboxylic acid hydrochloride] | 0.00413 µg/mL | 0.143 µg/mL | 0.0578 µg/mL | 0.323 µg/mL | 0.0494 µg/mL | 0.0712 µg/mL | 0.0625 µg/mL | 0.0285 µg/mL | 91% |  |  |  | > 75% |  | > 75% |  |  | 175% |  | > 275% | inhibition in vivo at 0.39 mg/kg ([4]; 0.39 mg/kg once a day): 57%; ILS at 0.78 mg/kg [5, 8]: > 75%; ILS at 0.78 mg/kg [5, 10]: 75%
CC1(N)CCN(c2ccc3c(=O)c(C(=O)O)cn(-c4nccs4)c3n2)C1 (stereo not drawn) [Compound 10] | 0.0192 µg/mL (≈ 0.0517 µM) | 0.468 µg/mL (≈ 1.26 µM) | 0.386 µg/mL (≈ 1.04 µM) | 0.797 µg/mL (≈ 2.15 µM) | 0.19 µg/mL (≈ 0.512 µM) | 0.247 µg/mL (≈ 0.665 µM) | 0.153 µg/mL (≈ 0.412 µM) | 0.292 µg/mL (≈ 0.786 µM) |  | > 75% | > 275% |  | 20 to 74% | > 75% | > 75% | > 75% | 63% | 50% | 75% | 113% | inhibition in vivo at 3.13 mg/kg [4]: 74%; ILS at 12.5 mg/kg [5, 18]: 100%; ILS at 25 mg/kg [5, 20]: 125%

Further lines, with some results ahead:

IC50 [1] | IC50 [2] | IC50 (HMV2 human melanoma) | IC50 [3] | IC50 [6] | IC50 (C33A human cervix cancer) | IC50 (A427 human lung cancer) | IC50 [7] | Structure (SMILES) | inhibition in vivo at 1.56 mg/kg [4] | ILS at 50 mg/kg [5, 8] | ILS at 50 mg/kg [5, 9] | ILS at 50 mg/kg [5, 10] | ILS at 3.13 mg/kg [5, 11] | ILS at 6.25 mg/kg [5, 12] | ILS at 12.5 mg/kg [5, 13] | ILS at 25 mg/kg [5, 14] | ILS at 3.13 mg/kg [5, 15] | ILS at 3.13 mg/kg [5, 16] | ILS at 6.25 mg/kg [5, 17] | ILS at 12.5 mg/kg [5, 19] | further results
0.0105 µg/mL (≈ 0.0283 µM) | 0.16 µg/mL (≈ 0.431 µM) | 0.122 µg/mL (≈ 0.328 µM) | 0.381 µg/mL (≈ 1.03 µM) | 0.0987 µg/mL (≈ 0.266 µM) | 0.156 µg/mL (≈ 0.42 µM) | 0.0832 µg/mL (≈ 0.224 µM) | 0.0622 µg/mL (≈ 0.167 µM) | CNC1CCN(c2ccc3c(=O)c(C(=O)O)cn(-c4nccs4)c3n2)C1 (stereo not drawn) [Compound 6] | 71% | > 75% |  | > 275% | > 75% | > 75% | > 75% | > 75% | 100% | 100% | 138% | 200% | ILS at 1.56 mg/kg [5, 8]: 20 to 74%; ILS at 1.56 mg/kg [5, 9]: 63%; ILS at 12.5 mg/kg [5, 18]: 150%; ILS at 25 mg/kg [5, 20]: 225%
0.00809 µg/mL | 0.148 µg/mL | 0.211 µg/mL | 0.412 µg/mL | 0.106 µg/mL | 0.151 µg/mL | 0.1 µg/mL | 0.0625 µg/mL | Cl.Nc1cc(N2CCC(N)C2)nc2c1c(=O)c(C(=O)O)cn2-c1nccs1 (stereo not drawn) [Compound 9, 5-Amino-7-(3-amino-1-pyrrolidinyl)-1,4-dihydro-4-oxo-1-(2-thiazolyl)-1,8-naphthyridine-3-carboxylic acid hydrochloride] |  | > 75% |  | 250% | > 75% |  | > 75% |  |  | 100% |  | 125% | inhibition in vivo at 3.13 mg/kg [4]: 62%; inhibition in vivo at 6.25 mg/kg ([4]; 6.25 mg/kg once a day): 97%

Source: US5817669A, “Compounds, processes for the preparation thereof and anti-tumor agents” (Dainippon Pharmaceutical Co., Ltd., priority 1994, dated 1998)
